From PubChem BioAssay (NCI)
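Five concentrations, 48 hours, 96-well plates. Definition used: TGI = concentration required for complete inhibition of growth.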

What was measured:
Experiment in all cases: DTP human tumour cell line panel, 48 h
[1] = tested on: RPMI-8226 leukemia
[2] = tested on: CCRF-CEM leukemia
[3] = tested on: HT29 colon
[4] = tested on: DU-145 prostate
[5] = tested on: SNB-19 CNS
[6] = tested on: SK-MEL-2 melanoma
[7] = tested on: NCI/ADR-RES ovarian
[8] = tested on: SK-MEL-28 melanoma
[9] = tested on: HOP-62 NSCLC
[10] = tested on: UO-31 renal
[11] = tested on: OVCAR-5 ovarian
[12] = tested on: SNB-75 CNS
[13] = tested on: MOLT-4 leukemia
[14] = tested on: A498 renal
[15] = tested on: SW-620 colon
[16] = tested on: PC-3 prostate
[17] = tested on: NCI-H460 lung
[18] = tested on: HCT-116 colon
[19] = tested on: K-562 leukemia
[20] = tested on: SF-295 CNS
[21] = tested on: IGROV1 ovarian
[22] = tested on: HL-60(TB) leukemia
[23] = tested on: SN12C renal
[24] = tested on: LOX IMVI melanoma
[25] = tested on: UACC-257 melanoma
[26] = tested on: KM12 colon
[27] = tested on: MALME-3M melanoma
[28] = tested on: CAKI-1 renal
[29] = tested on: HS 578T breast
[30] = tested on: EKVX NSCLC
[31] = tested on: TK-10 renal
[32] = tested on: A549 NSCLC
[33] = tested on: NCI-H23 lung
[34] = tested on: T-47D breast
[35] = tested on: COLO 205 colon
[36] = tested on: 786-0 renal
[37] = tested on: MDA-N
[38] = tested on: ACHN renal
[39] = tested on: U251 CNS
[40] = tested on: MDA-MB-231 breast
[41] = tested on: MCF7 breast
[42] = tested on: HCT-15 colon
[43] = tested on: SF-539 CNS
[44] = tested on: SF-268 CNS
[45] = tested on: SK-MEL-5 melanoma
[46] = tested on: OVCAR-8 ovarian
[47] = tested on: SR leukemia
[48] = tested on: HOP-92 NSCLC
[49] = tested on: OVCAR-4 ovarian
[50] = tested on: HCC-2998 colon
[51] = tested on: SK-OV-3 ovarian
[52] = tested on: OVCAR-3 ovarian
[53] = tested on: UACC-62 melanoma
[54] = tested on: M14 melanoma
[55] = tested on: RXF 393 renal
[56] = tested on: MDA-MB-435
[57] = tested on: NCI-H226 lung

With C=C1CN=C(Nc2ccc(F)cc2F)S1 as the compound, how does the TGI [1] read?
Its TGI is > 100000 nM.

What about the TGI [2] of the same compound?
The TGI was 66.1 µM.

And the TGI [3]?
Its TGI is > 100000 nM.

What about the TGI [4] of the same compound?
The TGI was > 100000 nM.

What about the TGI [5] of the same compound?
Its TGI is > 100 µM.

What about the TGI [6] of the same compound?
Its TGI is > 100 µM.

And the TGI [7]?
Its TGI is > 100 µM.

And the TGI [8]?
Its TGI is > 100 µM.

And the TGI [9]?
The TGI was > 100000 nM.

And the TGI [10]?
Its TGI is > 100000 nM.

And the TGI [11]?
Its TGI is > 100 µM.

And the TGI [12]?
The TGI was > 100 µM.

And the TGI [13]?
Its TGI is 96.5 µM.

And the TGI [14]?
Its TGI is > 100 µM.

What about the TGI [15] of the same compound?
The TGI was > 100 µM.

What about the TGI [16] of the same compound?
Its TGI is > 100 µM.

What about the TGI [17] of the same compound?
The TGI was > 100000 nM.

And the TGI [18]?
The TGI was > 100 µM.

What about the TGI [19] of the same compound?
Its TGI is > 100 µM.

And the TGI [20]?
Its TGI is > 100000 nM.

And the TGI [21]?
The TGI was > 100000 nM.

What about the TGI [22] of the same compound?
The TGI was > 100000 nM.

What about the TGI [23] of the same compound?
The TGI was > 100 µM.

What about the TGI [24] of the same compound?
The TGI was 49.2 µM.

And the TGI [25]?
The TGI was > 100000 nM.

What about the TGI [26] of the same compound?
The TGI was > 100000 nM.

What about the TGI [27] of the same compound?
The TGI was > 100 µM.

And the TGI [28]?
Its TGI is > 100000 nM.

What about the TGI [29] of the same compound?
Its TGI is > 100000 nM.

And the TGI [30]?
Its TGI is > 100000 nM.

And the TGI [31]?
Its TGI is > 100 µM.

What about the TGI [32] of the same compound?
Its TGI is > 100000 nM.

What about the TGI [33] of the same compound?
Its TGI is > 100 µM.

What about the TGI [34] of the same compound?
The TGI was > 100 µM.

And the TGI [35]?
The TGI was > 100 µM.

And the TGI [36]?
The TGI was > 100000 nM.

And the TGI [37]?
The TGI was > 100 µM.

What about the TGI [38] of the same compound?
Its TGI is > 100000 nM.

What about the TGI [39] of the same compound?
The TGI was > 100000 nM.

And the TGI [40]?
Its TGI is > 100 µM.

What about the TGI [41] of the same compound?
Its TGI is > 100000 nM.

And the TGI [42]?
Its TGI is > 100 µM.

And the TGI [43]?
The TGI was > 100000 nM.

And the TGI [44]?
The TGI was > 100 µM.

And the TGI [45]?
The TGI was > 100000 nM.

What about the TGI [46] of the same compound?
Its TGI is > 100000 nM.

What about the TGI [47] of the same compound?
Its TGI is > 100000 nM.

And the TGI [48]?
The TGI was > 100 µM.

What about the TGI [49] of the same compound?
The TGI was > 100000 nM.

What about the TGI [50] of the same compound?
Its TGI is > 100 µM.

What about the TGI [51] of the same compound?
Its TGI is > 100000 nM.

Which TGI [1] does the source give for O=C1c2c(O)cccc2Cc2cccc(O)c21 here?
Its TGI is 1030 nM.

What about the TGI [3] of the same compound?
Its TGI is 1550 nM.

What about the TGI [4] of the same compound?
The TGI was 942 nM.

And the TGI [5]?
Its TGI is 5.39 µM.

What about the TGI [8] of the same compound?
Its TGI is 3.75 µM.

What about the TGI [9] of the same compound?
The TGI was 1320 nM.

And the TGI [10]?
The TGI was 1150 nM.

What about the TGI [52] of the same compound?
Its TGI is 1970 nM.

What about the TGI [14] of the same compound?
The TGI was 4.81 µM.

And the TGI [17]?
The TGI was 1310 nM.

And the TGI [20]?
The TGI was 782 nM.

And the TGI [53]?
Its TGI is 3.07 µM.

And the TGI [21]?
The TGI was 1560 nM.

And the TGI [22]?
The TGI was 672 nM.

What about the TGI [25] of the same compound?
The TGI was 653 nM.

And the TGI [26]?
The TGI was 1320 nM.

What about the TGI [54] of the same compound?
Its TGI is 1970 nM.

What about the TGI [55] of the same compound?
Its TGI is 1330 nM.

What about the TGI [28] of the same compound?
Its TGI is 1200 nM.

And the TGI [29]?
The TGI was 1090 nM.

What about the TGI [30] of the same compound?
The TGI was 572 nM.

What about the TGI [31] of the same compound?
The TGI was 5.35 µM.

And the TGI [32]?
The TGI was 1070 nM.

What about the TGI [33] of the same compound?
The TGI was 12.8 µM.

And the TGI [56]?
Its TGI is 11.2 µM.

And the TGI [36]?
Its TGI is 1760 nM.

What about the TGI [37] of the same compound?
Its TGI is 10.2 µM.

And the TGI [38]?
The TGI was 1100 nM.

What about the TGI [39] of the same compound?
Its TGI is 1470 nM.

And the TGI [41]?
The TGI was 664 nM.

And the TGI [43]?
Its TGI is 923 nM.

What about the TGI [44] of the same compound?
Its TGI is 3.25 µM.

And the TGI [45]?
Its TGI is 330 nM.

What about the TGI [46] of the same compound?
Its TGI is 1040 nM.

What about the TGI [47] of the same compound?
The TGI was 1740 nM.

And the TGI [49]?
The TGI was 1800 nM.

And the TGI [51]?
Its TGI is 1210 nM.

What about the TGI [57] of the same compound?
The TGI was 1270 nM.
